Measurements as given in patent US7429585B2, “Phenyl-piperazine methanone derivatives, substituted by heterocyclic groups” (Hoffmann-La Roche, priority 2004, dated 2008).

What follows are compounds tested against T1, mGlyT-1b (Mus musculus, UniProt P28571) (assay: Glycine uptake inhibition assay (mGlyT-1b)). Details: inhibition of [3H]-glycine uptake in Flp-in-CHO cells transfected with mGlyT-1b cDNA.
T1 construct: host or cells: Flp-in-CHO
T1 sequence (P28571 1-651 isoform P28571-2): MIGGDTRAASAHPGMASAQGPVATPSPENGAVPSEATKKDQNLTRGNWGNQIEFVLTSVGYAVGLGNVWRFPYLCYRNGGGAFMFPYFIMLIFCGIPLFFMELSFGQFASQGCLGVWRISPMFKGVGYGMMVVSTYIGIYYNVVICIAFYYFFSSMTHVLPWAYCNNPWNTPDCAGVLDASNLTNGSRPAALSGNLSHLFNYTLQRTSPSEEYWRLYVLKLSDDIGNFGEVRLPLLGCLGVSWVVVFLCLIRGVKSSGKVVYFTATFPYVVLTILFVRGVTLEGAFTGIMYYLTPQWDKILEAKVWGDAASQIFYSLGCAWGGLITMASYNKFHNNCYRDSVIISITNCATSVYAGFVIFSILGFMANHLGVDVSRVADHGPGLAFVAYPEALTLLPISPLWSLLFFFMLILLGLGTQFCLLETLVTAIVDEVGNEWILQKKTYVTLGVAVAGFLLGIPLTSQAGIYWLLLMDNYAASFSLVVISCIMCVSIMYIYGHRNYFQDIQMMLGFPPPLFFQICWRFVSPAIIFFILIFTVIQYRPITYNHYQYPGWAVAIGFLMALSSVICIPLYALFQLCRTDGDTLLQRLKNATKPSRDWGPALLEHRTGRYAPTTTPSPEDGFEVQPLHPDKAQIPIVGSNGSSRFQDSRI
Format: cell-based
Description: DMEM complete medium: Nutrient mixture F-12 (Gibco Life-technologies), fetal bovine serum (FBS) 5%, (Gibco life technologies), Penicillin/Streptomycin 1% (Gibco life technologies), Hygromycin 0.6 mg/ml (Gibco life technologies), Glutamine 1 mM Gibco life technologies)
Uptake buffer (UB): 150 mM NaCl, 10 mM Hepes-Tris, pH 7.4, 1 mM CaCl2, 2.5 mM KCl, 2.5 mM MgSO4, 10 mM (+) D-glucose. Flp-in™-CHO (Invitrogen Cat n° R758-07)cells stably transfected with mGlyT1b cDNA.
Glycine Uptake Inhibition Assay (mGlyT-1b)
On day 1 mammalian cells, (Flp-in™-CHO), transfected with mGlyT-1b cDNA, were plated at the density of 40,000 cells/well in complex F-12 medium, without hygromycin in 96-well culture plates. On day 2, the medium was aspirated and the cells were washed twice with uptake buffer (UB). The cells were then incubated for 20 min at 22° C. with either (i) no potential competitor, (ii) 10 mM non-radioactive glycine, (iii) a concentration of a potential inhibitor. A range of concentrations of the potential inhibitor was used to generate data for calculating the concentration of inhibitor resulting in 50% of the effect (e.g. IC50, the concentration of the competitor inhibiting glycine uptake of 50%). A solution was then immediately added containing [^3H]-glycine 60 nM (11-16 Ci/mmol) and 25 μM non-radioactive glycine. The plates were incubated with gentle shaking and the reaction was stopped by aspiration of the mixture and washing (three times) with ice-cold UB. The cells were lysed with scintillation liquid, shaken 3 hours and the radioactivity in the cells was counted using a scintillation counter.
Compound `C[C@H](Oc1ccc(S(C)(=O)=O)cc1C(=O)N1CCN(c2nsc3ccccc23)CC1)C(F)(F)F` [Example 1.33, (4-Benzo[d]isothiazol-3-yl-piperazin-1-yl)-[5-methanesulfonyl-2-((S)-2,2,2-trifluoro-1-methyl-ethoxy)-phenyl]-methanone] has an IC50 of 55 nM. Work on `O=C(c1cc([N+](=O)[O-])ccc1N1CCOCC1)N1CCN(c2nsc3ccccc23)CC1` [Example 1.31, (4-Benzo[d]isothiazol-3-yl-piperazin-1-yl)-(2-morpholin-4-yl-5-nitro-phenyl) -methanone] yielded an IC50 of 467 nM. `C[C@H](Oc1ccc(S(C)(=O)=O)cc1C(=O)N1CCN(c2nc3ccc(Cl)cc3s2)CC1)C(F)(F)F` [Example 1.40, [4-(6-Chloro-benzothiazol-2-yl)-piperazin-1-yl]-[5-methanesulfonyl-2-((S)-2,2,2-trifluoro-1methyl-ethoxy)-phenyl]-methanone] showed an IC50 of 39 nM. Compound `CC(C)COc1ccc(S(C)(=O)=O)cc1C(=O)N1CCN(c2cnc3ccccc3c2)CC1` [Example 1.27, (2-Isobutoxy-5-methanesulfonyl-phenyl)-(4-quinolin-3-yl-piperazin-1-yl)-methanone] has an IC50 of 82 nM. `CC(C)Oc1ccc(S(C)(=O)=O)cc1C(=O)N1CCN(c2nsc3ccccc23)CC1` [Example 1.29, (4-Benzo [d]isothiazol-3-yl-piperazin-1-yl)-(2-isopropoxy-5-methanesulfonyl-phenyl) -methanone] was tested, and the IC50 was 500 nM. Compound `CS(=O)(=O)c1ccc(OC2CCCC2)c(C(=O)N2CCN(c3nc4ccccc4o3)CC2)c1` [Example 1.4, (4-Benzoxazol-2-yl-piperazin-1-yl)-(2-cyclopentyloxy-5-methanesulfonyl-phenyl)-methanone] has an IC50 of 97 nM. `CC(C)COc1ccc(S(C)(=O)=O)cc1C(=O)N1CCN(c2nc3ccccc3o2)CC1` [Example 1.5, (4-Benzoxazol-2-yl-piperazin-1-yl)-(2-isobutoxy-5-methanesulfonyl-phenyl)-methanone] showed an IC50 of 144 nM. With `CC(C)COc1ccc(S(C)(=O)=O)cc1C(=O)N1CCN(c2cnc3ccccc3n2)CC1` [Example 1.23, (2-Isobutoxy-5-methanesulfonyl-phenyl)-(4-quinoxalin-2-yl-piperazin-1-yl)-methanone] the IC50 was 167 nM. Work on `CCOc1ccc2nc(N3CCN(C(=O)c4cc(S(C)(=O)=O)ccc4OC(C)C)CC3)sc2c1` [Example 1.15, [4-(6-Ethoxy-benzothiazol-2-yl)-piperazin-1-yl]-(2-isopropoxy-5-methanesulfonyl-phenyl)-methanone] yielded an IC50 of 339 nM. In the case of `CC(C)Oc1ccc(S(C)(=O)=O)cc1C(=O)N1CCN(c2nc3c([N+](=O)[O-])cccc3s2)CC1` [Example 1.12, (2-Isopropoxy-5-methanesulfonyl-phenyl)-[4-(4-nitro-benzothiazol-2-yl)-piperazin-1-yl]-methanone], the IC50 is reported as 375 nM. With `CC(C)Oc1ccc(S(C)(=O)=O)cc1C(=O)N1CCN(c2nc3ccc([N+](=O)[O-])cc3s2)CC1` [Example 1.9, (2-Isopropoxy-5-methanesulfonyl-phenyl)-[4-(6-nitro-benzothiazol-2-yl)-piperazin-1-yl]-methanone] the IC50 was 206 nM. `CC(C)Oc1ccc(S(C)(=O)=O)cc1C(=O)N1CCN(c2nc3c(O)cccc3s2)CC1` [Example 1.13, [4-(4-Hydroxy-benzothiazol-2-yl)-piperazin-1-yl]-(2-isopropoxy-5-methanesulfonyl-phenyl)-methanone] gave an IC50 of 158 nM. `CS(=O)(=O)c1ccc(OC2CCCC2)c(C(=O)N2CCN(c3cnc4ccccc4c3)CC2)c1` [Example 1.28, (2-Cyclopentyloxy-5-methanesulfonyl-phenyl)-(4-quinolin-3-yl-piperazin-1-yl)-methanone] was tested, and the IC50 was 149 nM. With `CC(C)Oc1ccc(S(C)(=O)=O)cc1C(=O)N1CCN(c2cnc3ccccc3n2)CC1` [Example 1.24, (2-Isopropoxy-5-methanesulfonyl-phenyl)-(4-quinoxalin-2-yl-piperazin-1-yl)-methanone] the IC50 was 287 nM. `CC(C)COc1ccc(S(C)(=O)=O)cc1C(=O)N1CCN(c2ccc3ccccc3n2)CC1` [Example 1.19, (2-Isobutoxy-5-methanesulfonyl-phenyl)-(4-quinolin-2-yl-piperazin-1-yl)-methanone] was tested, and the IC50 was 78 nM. Work on `CC(C)Oc1ccc(S(C)(=O)=O)cc1C(=O)N1CCN(c2nc3cc(Cl)ccc3s2)CC1` [Example 1.14, [4-(5-Chloro-benzothiazol-2-yl)-piperazin-1-yl]-(2-isopropoxy-5-methanesulfonyl-phenyl)-methanone] yielded an IC50 of 218 nM. For `CS(=O)(=O)c1ccc(OC2CCCC2)c(C(=O)N2CCN(c3ccc4cc(Cl)ccc4n3)CC2)c1` [Example 1.22, [4-(6-Chloro-quinolin-2-yl)-piperazin-1-yl]-(2-cyclopentyloxy-5-methanesulfonyl-phenyl)-methanone], the IC50 was 399 nM. With `COc1cccc2sc(N3CCN(C(=O)c4cc(S(C)(=O)=O)ccc4OC(C)C)CC3)nc12` [Example 1.11, (2-Isopropoxy-5-methanesulfonyl-phenyl)-[4-(4-methoxy-benzothiazol-2-yl)-piperazin-1-yl]-methanone] the IC50 was 148 nM. Work on `CS(=O)(=O)c1ccc(OC2CCCC2)c(C(=O)N2CCN(c3cnc4ccccc4n3)CC2)c1` [Example 1.25, (2-Cyclopentyloxy-5-methanesulfonyl-phenyl)-(4-quinoxalin-2-yl-piperazin-1-yl)-methanone] yielded an IC50 of 67 nM. Compound `CC(C)Oc1ccc(S(C)(=O)=O)cc1C(=O)N1CCN(c2nc3ccc(Cl)cc3s2)CC1` [Example 1.2, [4-(6-Chloro-benzothiazol-2-yl)-piperazin-1-yl]-(2-isopropoxy-5-methanesulfonyl-phenyl)-methanone] has an IC50 of 398 nM. `Cc1nc2cc(N3CCN(C(=O)c4cc(S(C)(=O)=O)ccc4OCC(C)C)CC3)ccc2s1` [Example 1.17, (2-Isobutoxy-5-methanesulfonyl-phenyl)-[4-(2-methyl-benzothiazol-5-yl)-piperazin-1-yl]-methanone] gave an IC50 of 440 nM. Compound `COc1ccc2nc(N3CCN(C(=O)c4cc(S(C)(=O)=O)ccc4OC(C)C)CC3)sc2c1` [Example 1.8, (2-Isopropoxy-5-methanesulfonyl-phenyl)-[4-(6-methoxy-benzothiazol-2-yl)-piperazin-1-yl]-methanone] has an IC50 of 174 nM. `CS(=O)(=O)c1ccc(OCC2CC2)c(C(=O)N2CCN(c3nc4ccc(Cl)cc4s3)CC2)c1` [Example 1.39, [4-(6-Chloro-benzothiazol-2-yl)-piperazin-1-yl]-(2-cyclopropylmethoxy-5-methanesulfonyl-phenyl)-methanone] was tested, and the IC50 was 230 nM. Compound `O=C(c1cc([N+](=O)[O-])ccc1N1CCOCC1)N1CCN(c2nc3ccc(Cl)cc3s2)CC1` [Example 1.1, [4-(6-Chloro-benzothiazol-2-yl)-piperazin-1-yl]-(2-morpholin-4-yl-5-nitro-phenyl) -methanone] has an IC50 of 271 nM.
